{"source": "patent US9481667B2", "about": "“Salts and solid forms of isoquinolinones and composition comprising and methods of using the same” (Infinity Pharmaceuticals, Inc., priority 2013, dated 2016)", "type_in_all_cases": "physicochemical", "key": {"[1]": {"experiment": "Stability on standing at ambient/room conditions", "description": "The bis-sulfuric acid salt is difficult to crystallise in an anhydrous environment. The experiment in methanol produced a clear solution, which then became an oil after solvent evaporation."}, "[2]": {"experiment": "Thermodynamic aqueous solubility", "details": "aqueous, thermodynamic from solid"}, "[3]": {"experiment": "Storage at 40° C./75% RH (solid-state stability)", "details": "for Stability on storage at 40° C./75% RH: 1 week, solid form by XRPD", "quoted_text": "The crystalline solids were filtered, dried at ambient conditions, and stored at 40° C./75% RH for 1 week and analyzed by ^1H NMR/IC.\nSamples from the screen using amorphous free base Compound 1 were analysed by ^1H-NMR and DSC, and re-analysis by XRPD was also carried out after drying at 50° C./vacuum and storage at 40° C./75% RH (the same sample was dried and stored at elevated humidity)."}, "[4]": {"experiment": "Storage at 25° C./93% RH (solid-state stability)", "details": "for Stability on storage at 25° C./93% RH: 1 week, solid form by XRPD"}, "[5]": {"experiment": "Free base solubility assessment in solvents", "protocol": "Approximately 11 mg (0.022 mmol) portions of the free base Form 1 of Compound 1 (i.e., the compound of formula (I)) were weighed into 2 ml screw-topped HPLC vials. One of 15 solvents was added to each vial in a number of aliquots (up to 100 volumes), with shaking and if necessary with heating to 40° C., in an attempt to achieve dissolution."}, "[6]": {"experiment": "Gravimetric vapour sorption (GVS)", "protocol": "Sorption isotherms were obtained using a Hiden IGASorp moisture sorption analyser, controlled by CFRSorp software. The sample temperature was maintained at 25° C. by a Huber re-circulating water bath. The humidity was controlled by mixing streams of dry and wet nitrogen, with a total flow rate of 250 ml/min. The relative humidity (RH) was measured by a calibrated Vaisala RH probe (dynamic range of 0-95% RH), located near the sample. The weight change, (mass relaxation) of the sample as a function of % RH was constantly monitored by the microbalance (accuracy ±0.001 mg). Typically 10-20 mg of sample was placed in a tared mesh stainless steel basket under ambient conditions. The sample was loaded and unloaded at 40% RH and 25° C. (typical room conditions). A moisture sorption isotherm was performed as outlined below (2 scans giving 1 complete cycle). The standard isotherm was performed at 25° C. at 10% RH intervals over a 0-90% RH range.\nThe software uses a least squares minimisation procedure together with a model of the mass relaxation, to predict an asymptotic value. The measured mass relaxation value must be within 5% of that predicted by the software, before the next % RH value is selected. The minimum equilibration time was set to 1 hour and the maximum to 4 hours. The sample was recovered after completion of the isotherm and re-analysed by XRPD."}, "[7]": {"details": "listed as Compound 1 Free Base Form 1"}, "[8]": {"details": "listed as amorphous free base Compound 1"}}, "note": "Where a name gives a salt, the structure may show the parent alone.", "data": [{"smiles": "COc1cc(-c2cccc3cc([C@H](C)Nc4nc(N)ncc4C#N)n(-c4ccccc4)c(=O)c23)ccn1", "note": "[(S)-2-amino-4-((1-(8-(2-methoxypyridin-4-yl)-1-oxo-2-phenyl-1,2-dihydroisoquinolin-3-yl)ethyl)amino)pyrimidine-5-carbonitrile]", "values": [{"measurement": "Crystallinity after standing", "setting": "[1]; RT, 24 hours", "result": "decreases"}, {"measurement": "Stability at ambient conditions", "setting": "[1]; converts to Form 1 by hydration", "result": "unstable"}, {"measurement": "solubility thermodynamic", "setting": "[2]; pH 1.9, water, 0.5 g scale-up salts, pH of solution reported separately", "result": 1900, "unit": "µg/mL"}]}, {"smiles": "CC(=O)O.COc1cc(-c2cccc3cc([C@H](C)Nc4nc(N)ncc4C#N)n(-c4ccccc4)c(=O)c23)ccn1.COc1cc(-c2cccc3cc([C@H](C)Nc4nc(N)ncc4C#N)n(-c4ccccc4)c(=O)c23)ccn1", "note": "[Batch 2 of Form 6]", "values": [{"measurement": "Stability at 40° C./75% RH", "setting": "[3]; after 1 week", "result": "Very slight changes"}, {"measurement": "Stability at 25° C./93% RH", "setting": "[4]; after 1 week", "result": "Very slight changes"}]}, {"smiles": "COc1cc(-c2cccc3cc([C@H](C)Nc4nc(N)ncc4C#N)n(-c4ccccc4)c(=O)c23)ccn1", "note": "[Compound 1, (S)-2-amino-4-((1-(8-(2-methoxypyridin-4-yl)-1-oxo-2-phenyl-1,2-dihydroisoquinolin-3-yl)ethyl)amino)pyrimidine-5-carbonitrile]", "values": [{"measurement": "solvent volumes to dissolve", "setting": "[5]; 2-MeTHF, free base Form 1, shaking, if necessary heating to 40° C.", "result": 50, "unit": "vol."}, {"measurement": "solvent volumes to dissolve", "setting": "[5]; DMSO, free base Form 1, shaking, if necessary heating to 40° C.", "result": 5, "unit": "vol."}, {"measurement": "solvent volumes to dissolve", "setting": "[5]; EtOAC, free base Form 1, did not dissolve in up to 100 vol.", "result": "> 100", "unit": "vol."}, {"measurement": "solvent volumes to dissolve", "setting": "[5]; EtOH/H2O, free base Form 1, did not dissolve in up to 100 vol.", "result": "> 100", "unit": "vol."}, {"measurement": "solvent volumes to dissolve", "setting": "[5]; EtOH, free base Form 1, did not dissolve in up to 100 vol.", "result": "> 100", "unit": "vol."}, {"measurement": "solvent volumes to dissolve", "setting": "[5]; H2O, free base Form 1, did not dissolve in up to 100 vol.", "result": "> 100", "unit": "vol."}, {"measurement": "solvent volumes to dissolve", "setting": "[5]; MIBK, free base Form 1, shaking, if necessary heating to 40° C.", "result": 40, "unit": "vol."}, {"measurement": "solvent volumes to dissolve", "setting": "[5]; MeOH/anisole (50/50 v/v), free base Form 1, shaking, if necessary heating to 40° C.", "result": 10, "unit": "vol."}, {"measurement": "solvent volumes to dissolve", "setting": "[5]; MeOH, free base Form 1, shaking, if necessary heating to 40° C.", "result": 75, "unit": "vol."}, {"measurement": "solvent volumes to dissolve", "setting": "[5]; TBME, free base Form 1, did not dissolve in up to 100 vol.", "result": "> 100", "unit": "vol."}, {"measurement": "solvent volumes to dissolve", "setting": "[5]; THF, free base Form 1, shaking, if necessary heating to 40° C.", "result": 40, "unit": "vol."}, {"measurement": "solvent volumes to dissolve", "setting": "[5]; acetone, free base Form 1, did not dissolve in up to 100 vol.", "result": "> 100", "unit": "vol."}, {"measurement": "solvent volumes to dissolve", "setting": "[5]; acetonitrile, free base Form 1, did not dissolve in up to 100 vol.", "result": "> 100", "unit": "vol."}, {"measurement": "solvent volumes to dissolve", "setting": "[5]; anisole, free base Form 1, did not dissolve in up to 100 vol.", "result": "> 100", "unit": "vol."}, {"measurement": "solvent volumes to dissolve", "setting": "[5]; chloroform, free base Form 1, shaking, if necessary heating to 40° C.", "result": 40, "unit": "vol."}]}, {"smiles": "COc1cc(-c2cccc3cc([C@H](C)Nc4nc(N)ncc4C#N)n(-c4ccccc4)c(=O)c23)ccn1", "note": "[Form 1 of the 1,2-ethanedisulfonic acid salt of Compound 1] [(S)-2-amino-4-((1-(8-(2-methoxypyridin-4-yl)-1-oxo-2-phenyl-1,2-dihydroisoquinolin-3-yl)ethyl)amino)pyrimidine-5-carbonitrile]", "values": [{"measurement": "Storage 40° C./75% RH for 1 week: HPLC Purity", "setting": "[3]; 0.5 g scale-up salts", "result": "HPLC Purity: Unchanged"}, {"measurement": "Storage 40° C./75% RH for 1 week: XRPD (D8)", "setting": "[3]; 0.5 g scale-up salts", "result": "XRPD (D8): Unchanged"}, {"measurement": "Stability on storage at 40° C./75% RH", "setting": "[3]", "result": "stable"}, {"measurement": "Stability on storage at 40° C./75% RH", "setting": "[3]; listed as mono-1,2-ethanedisulfonic acid salt", "result": "stable"}, {"measurement": "XRPD post GVS (C2)", "setting": "[6]; 0.5 g scale-up salts", "result": "Unchanged"}, {"measurement": "GVS Single cycle", "setting": "[6]; hygroscopicity, 25° C., 0-90% RH", "result": "Moderately hygroscopic"}, {"measurement": "Storage 25° C./93% RH for 1 week: HPLC Purity", "setting": "[4]; 0.5 g scale-up salts", "result": "HPLC Purity: Unchanged"}, {"measurement": "Storage 25° C./93% RH for 1 week: XRPD (D8)", "setting": "[4]; 0.5 g scale-up salts", "result": "XRPD (D8): Unchanged"}]}, {"smiles": "COc1cc(-c2cccc3cc([C@H](C)Nc4nc(N)ncc4C#N)n(-c4ccccc4)c(=O)c23)ccn1", "note": "[Form 1 of the free base of Compound 1, (S)-2-amino-4-((1-(8-(2-methoxypyridin-4-yl)-1-oxo-2-phenyl-1,2-dihydroisoquinolin-3-yl)ethyl)amino)pyrimidine-5-carbonitrile]", "values": [{"measurement": "Stability on storage at 40° C./75% RH", "setting": "[3]", "result": "stable"}, {"measurement": "Stability on storage at 40° C./75% RH", "setting": "[3]; [7]", "result": "No changes in form after 1 week"}, {"measurement": "Stability on storage at 40° C./75% RH", "setting": "[3]; listed as Free base Form 1", "result": "did not show any changes"}, {"measurement": "RH range in which hydration to Form 3 occurs", "setting": "[6]", "result": "80-90 % RH"}, {"measurement": "GVS: form change with humidity", "setting": "[6]; above 80% RH, listed as Free base Form 1", "result": "hydrates to a higher hydrate above 80% RH, but this re-converts to Form 1 on desorption"}, {"measurement": "GVS: moisture on loading", "setting": "[6]; loaded at 40% RH, 25° C., listed as Compound 1 Free Base Form 1", "result": 0.7, "unit": "% w/w"}, {"measurement": "solubility thermodynamic", "setting": "[2]; water, at pH 6.85", "result": 4, "unit": "µg/mL"}, {"measurement": "Stability on storage at 25° C./93% RH", "setting": "[4]", "result": "converts to Form 3"}, {"measurement": "Stability on storage at 25° C./93% RH", "setting": "[4]; [7]", "result": "Conversion to Form 3 (FIG. 31)"}, {"measurement": "Stability on storage at 25° C./93% RH", "setting": "[4]; listed as Free base Form 1", "result": "conversion to Form 3"}]}, {"smiles": "COc1cc(-c2cccc3cc([C@H](C)Nc4nc(N)ncc4C#N)n(-c4ccccc4)c(=O)c23)ccn1", "note": "[amorphous free base of Compound 1, (S)-2-amino-4-((1-(8-(2-methoxypyridin-4-yl)-1-oxo-2-phenyl-1,2-dihydroisoquinolin-3-yl)ethyl)amino)pyrimidine-5-carbonitrile]", "values": [{"measurement": "Stability on storage at 40° C./75% RH", "setting": "[3]; [8]", "result": "No changes after 1 week"}, {"measurement": "Storage at elevated humidity", "setting": "[3]; elevated humidity conditions, solid form", "result": "No crystallisation"}, {"measurement": "Stability on storage at 25° C./93% RH", "setting": "[4]; [8]", "result": "No changes after 1 week"}]}]}
